Measured values taken from patent publication US12110527B2, “Production of symmetrical bolaform sophorosides” (priority 2018, dated 2024).

Test system: S. bombicola Δcyp52M1Δfao1 strain
Experiment: Shake flask cultivation fed with different primary fatty alcohols: follow-up of growth (CFU) and glucose consumption
Format: cell-based, Starmerella bombicola
Details: for glucose consumption rate: alcohol fed at 1.8 (w/v) % after 48 h of cultivation, shake flask
Method: Production experiments using S. bombicola were performed using the production medium described by Lang et al. (2000). For shake flask experiments, 5 ml tube cultures were set up 24 h (30° C.), before transferring to shake flasks (4% inoculation). Production experiments were executed with feeding of fatty alcohols: oleyl alcohol, stearyl alcohol, lauryl alcohol, myristyl alcohol or cetyl alcohol which were added after 48 h of cultivation. The Δcyp52M1Δfao1 strain was also assessed without addition of the hydrophobic alcohol. For every production experiment, cultivation was stopped when glucose was depleted from the medium. Experiments were performed in duplicate, and average values with standard deviations are presented.
Optical density (OD) of cultures was measured at 600 nm using the Jasco V 630 Bio spectrophotometer (Jasco Europe) of 1 mL samples diluted with physiological solution (9 g/L NaCl). The viability of yeast cells in cultivation experiments was assessed by determining colony forming units (CFUs) which were expressed as the average logarithm of CFUs per culture volume as log (CFU/mL) (Saerens et al., 2011). Alternatively, Cell Dry Weight (CDW) was determined by centrifuging 1 mL fermentation samples at 14000 rpm for 5 min in tared Eppendorf tubes, and subsequently washing the cell pellets twice with 1 mL physiological solution. The remaining cell pellet was put into a 70° C. oven for 5 days and then weighed afterwards. The CDW (g/L) was calculated after subtraction of the empty weight of the Eppendorf tube.
Glucose concentrations were determined using the 2700 Select Biochemistry Analyser (YSI Inc.) or using Ultra Performance Liquid Chromatography (Waters Acquity H-Class UPLC), coupled with an Evaporative Light Scattering Detector (Waters Acquity ELSD Detector) (UPLC-ELSD). For the UPLC analysis, an Acquity UPLC BEH Amide column (130 Å, 1.7 μm, 2.1×100 mm) (Waters) was used at 35° C. and an isocratic flow rate of 0.5 mL/min of 75% acetonitrile and 0.2% triethylamine (TEA) was applied (5 min/sample). For the ELS detection, the nebulizer was cooled to 15° C. and the drift tube was kept at a temperature of 50° C. […] To express glucose consumption, a linear curve was fitted through the obtained glucose concentrations by UPLC-ELSD, and the respective slope was taken and denoted as the glucose consumption rate (g/L·h).
When two different groups were compared, the Welch's test was performed with a 95% confidence level using GraphPad Prism 7.04 software. For multiple group comparisons, analysis of variance (ANOVA) with Bonferroni's multiple comparison test correction with a 95% confidence level using GraphPad Prism 7.04 software was employed. For parameters pH, CFU, OD and glucose consumption, average values were taken when the yeast cells attained their stationary phase (after 48 h of cultivation). In general, data represented in graphs are the average and standard deviation of two experimental replicates (unless stated otherwise).
Unexpectedly, no successful uniform production of either bola SSs or alkyl SSs was obtained for the Δcyp52M1Δfao1 strain when feeding with oleyl alcohol. Instead, mixtures of both were found, although the majority of the novel glycolipids were (acetylated) bola SSs and only minor amounts of alkyl SS were produced. The production of tetra-acetylated bola SS was unexpected, since the CYP52M1 enzyme was thought to be the only enzyme involved in glycolipid production thus far in S. bombicola. To assess the influence on the chain lengths of primary alcohols to the glycolipid production, different substrates were fed to the Δcyp52M1Δfao1 strain. The parental strain Δcyp52M1 was assessed in parallel. Medium and long-chain alcohols were selected between a chain length of 12 and 18, similarly as reported by Davila et al. (1994) for alkanes. Similarly as for the experiments described above, the hydrophobic substrate was added after 48 h of cultivation.

CCCCCCCCCCCCCCCCO [cetyl alcohol]
glucose consumption rate: 0.38 g/L·h

CCCCCCCCCCCCO [lauryl alcohol]
glucose consumption after addition of the alcohol (addition 48 h after inoculation): stopped
CFUs (log (CFU/mL)) (after addition of the alcohol, 1.8 (w/v) % added after 48 h of cultivation, in contrast to all other fed substrates (FIG. 8A)): significant drop
glucose consumption rate after it initiated again (only Δcyp52M1Δfao1 strain, 100 h after substrate addition, until all glucose was depleted): 0.33 g/L·h

CCCCCCCCCCCCCCO [myristyl alcohol]
glucose consumption rate: 0.48 g/L·h

CCCCCCCC/C=C\CCCCCCCCO [oleyl alcohol]
glucose consumption rate: 0.48 g/L·h

CCCCCCCCCCCCCCCCCCO [stearyl alcohol]
glucose consumption rate: 0.38 g/L·h
